From US9315459B2, “Crystalline forms of 4-[2-(4-methylphenylsulfanyl)-phenyl] piperidine” (priority 2006, dated 2016)
Structures can show the parent of a compound that is named as a salt.

Assay: Solubility of salts in water, pH of the saturated solution and identity of the precipitate
Assay type: physicochemical
Settings: for Precipitate: precipitate isolated after the solubility determination compared with the compound dissolved; for Solubility in words: summary of table 3; for Formation of hydrates: when precipitated from water; for Resulting pH: pH in the saturated solution of the salt
Procedure: If the acid was a liquid it was added neat otherwise it was dissolved in the given solvent prior to addition. After mixing and precipitation stirring was continued overnight and the precipitate collected by filtration. Before drying in vacuum at 30° C. a small reference sample was withdrawn and dried at room temperature without vacuum. This procedure was included in order to test for solvates.

Cc1ccc(Sc2ccccc2C2CCNCC2)cc1 (racemic)
Precipitate: =start (after | Solubility in words: exceptionally high solubility

Cc1ccc(Sc2ccccc2C2CCNCC2)cc1 [Adipicacid, 1,6-hexanedioic acid 2:1]
Precipitate: =start

Cc1ccc(Sc2ccccc2C2CCNCC2)cc1 [Citric acid 2:1]
Precipitate: =Start

Cc1ccc(Sc2ccccc2C2CCNCC2)cc1 [D-tartaric acid, D-2,3-dihydroxy butanedioic acid 1:1]
Precipitate: Hydrate | Formation of hydrates: do

Cc1ccc(Sc2ccccc2C2CCNCC2)cc1 [Fumaric acid 1:1]
Precipitate: =start

Cc1ccc(Sc2ccccc2C2CCNCC2)cc1 [Glutamic acid 1:1]
Solubility in words: exceptionally high solubility

Cc1ccc(Sc2ccccc2C2CCNCC2)cc1 [Glutaric acid, 1,5-pentanedioic acid 1:1]
Precipitate: =start | Solubility in words: exceptionally high solubility

Cc1ccc(Sc2ccccc2C2CCNCC2)cc1 [HBr, 4-[2-(4-methylphenylsulfanyl)phenyl]piperidine hydrobromide]
Resulting pH (hydrobromide): 7.0 | Precipitate (hydrobromide): =Start | Formation of hydrates (listed as HBr addition salt, hydrobromide): does not form hydrates

Cc1ccc(Sc2ccccc2C2CCNCC2)cc1 [HCl, 4-[2-(4-methylphenyl-sulfanyl)phenyl]piperidine hydrochloride addition salt]
Precipitate: =Start

Cc1ccc(Sc2ccccc2C2CCNCC2)cc1 [Oxalic acid 1:1]
Precipitate: =Start

Cc1ccc(Sc2ccccc2C2CCNCC2)cc1 [Phosphoric acid 1:1]
Resulting pH: 2.0

Cc1ccc(Sc2ccccc2C2CCNCC2)cc1 [Sebacoinic acid, 1,8-octanedioic acid 2:1]
Precipitate: =Start
